# Where two headings read alike, the source gives them in different places.
# Tests used:
# [1] = tested on: enterovirus Cox A16; test: microbe, parasite or virus in culture; format: cell-based; conditions: for CoxA16 SI: CoxA16, Vero cells; for IC50: Enterovirus, read-out: CoxA16 IC50
# Procedure: (§1) Anti-picornaviral activity of the compounds of the present invention in in vitro model Test item: activity screening of compounds against enteroviruses EV71 and Cox A16 Test principle: using Vero cells as virus host, the cytopathic effect of Vero cells induced by the inhibition of compounds against enteroviruses EV71 and Cox A16 was measured.
# (§2) 1. Virus strains: enteroviruses EV71 (Shenzhen 98) and Cox A16, passaging in the laboratory.
# (§3) Test Method: Vero cells were incubated in a 96-well culture plate. After 24 hours, they were infected with EV71 and Cox A16 by adsorption for 2 hours. After discarding the virus solution, maintenance solutions containing different concentrations of samples and positive controls were added, and, at the same time, cell control wells and virus control wells were set. […] The half inhibitory concentrations (IC50) of the samples against EV71 and Cox A16 were respectively calculated according to the Reed-Muench method.
# [2] = tested on: enterovirus EV71 (Shenzhen 98); test: Inhibition of cytopathic effect (CPE) induced by EV71 in Vero cells; format: cell-based; conditions: for EV71 IC50 / IC50: CPE in Vero cells, Reed-Muench method; for EV71 SI: EV71, Vero cells
# Procedure: as §1, §2, §3
# [3] = tested on: Vero cells; test: Toxicity of compounds to the Vero host cells (TC50, TC0); format: cell-based
# [4] = CPE in Vero cells, Reed-Muench method
Molecule,"CoxA16 IC50 [1, 4]",CoxA16 SI [1],EV71 IC50 [2],EV71 SI [2],TC0 [3],TC50 [3],"IC50 [1, 4]",IC50 [2],TC0 ([3]; Vero cells),TC50 ([3]; Vero cells),melting point,IC50 ([1]; Vero)
2-{4-[5-(4-tert-butylphenoxy)pentyl]piperazin-1-yl}thiazole hydrochloride [Example 22],6.25 µg/mL,4.0,1.97 µg/mL,12.7,12.5 µg/mL,25.0 µg/mL,–,–,–,–,–,–
"CC(C)(C)c1ccc(OCCCCCN2CCN(c3nccs3)CC2)cc1 [Example 6, 2-{4-[5-(4-tert-butylphenoxy)pentyl]piperazin-1-yl}thiazole]",–,4.0,–,–,–,–,1.57 µg/mL,> 3.13 µg/mL,3.13 µg/mL,6.25 µg/mL,125 to 127 °C,–
"COc1ccc(OCCCCCCN2CCN(c3nccs3)CC2)cc1.Cl [Example 20, 2-{4-[6-(4-methoxyphenoxy)hexyl]piperazin-1-yl}thiazole hydrochloride]",–,–,–,–,–,–,> 3.13 µg/mL,> 3.13 µg/mL,3.13 µg/mL,63.0 µg/mL,221 to 223 °C,–
"Cc1ccc(OCCCCCCN2CCN(c3nccs3)CC2)cc1 [Example 8, 2-{4-[6-(4-methylphenoxy)hexyl]piperazin-1-yl}thiazole]",–,5.0,–,–,–,–,4.96 µg/mL,> 12.5 µg/mL,12.5 µg/mL,25.0 µg/mL,37 to 39 °C,–
"Fc1ccc(OCCCCCCN2CCN(c3nccs3)CC2)cc1 [Example 12, 2-{4-[6-(4-fluorophenoxy)hexyl]piperazin-1-yl}thiazole]",–,–,–,–,–,–,> 12.5 µg/mL,> 12.5 µg/mL,12.5 µg/mL,25.0 µg/mL,58 to 60 °C,–
"CCc1ccc(OCCCCCCN2CCN(c3nccs3)CC2)cc1 [Example 9, 2-{4-[6-(4-ethylphenoxy)hexyl]piperazin-1-yl}thiazole]",–,2.0,–,3.2,–,–,3.13 µg/mL,1.97 µg/mL,3.13 µg/mL,6.25 µg/mL,21 to 23 °C,–
"c1ccc(OCCCCCCN2CCN(c3nccs3)CC2)cc1 [Example 10, 2-[4-(6-phenoxyhexyl)piperazin-1-yl]thiazole]",–,2.0,–,–,–,–,12.5 µg/mL,> 12.5 µg/mL,12.5 µg/mL,25.0 µg/mL,37 to 39 °C,–
2-{4-[5-(4-tert-butylphenoxy)pentyl]piperazin-1-yl}thiazole [Example 16],4.30 µg/mL,5.8,>12.5 µg/mL,–,–,–,–,–,12.5 µg/mL,25.0 µg/mL,–,–
"CC(C)(C)c1ccc(OCCCCCCN2CCN(c3nccs3)CC2)cc1 [Example 11, 2-{4-[6-(4-tert-butylphenoxy)hexyl]piperazin-1-yl}thiazole]",–,2.0,–,4.0,–,–,3.13 µg/mL,1.57 µg/mL,3.13 µg/mL,6.25 µg/mL,30 to 32 °C,–
"NC(=O)c1ncn([C@@H]2O[C@H](CO)[C@@H](O)[C@H]2O)n1 [Con, ribavirin, reference compound]",–,–,–,–,–,–,–,517 µg/mL,500.0 µg/mL,2000 µg/mL,–,363 µg/mL
"CC(C)c1ccc(OCCCCCN2CCN(c3nccs3)CC2)cc1 [Example 5, 2-{4-[5-(4-isopropylphenoxy)pentyl]piperazin-1-yl}thiazole]",–,4.0,–,–,–,–,1.57 µg/mL,> 3.13 µg/mL,3.13 µg/mL,6.25 µg/mL,128 to 130 °C,–
"COc1ccc(OCCCCCN2CCN(c3nccs3)CC2)cc1 [Example 1, 2-{4-[5-(4-methoxyphenoxy)pentyl]piperazin-1-yl}thiazole]",–,4.0,–,2.8,–,–,25 µg/mL,36.3 µg/mL,50.0 µg/mL,100.0 µg/mL,83 to 85 °C,–
"CCc1ccc(OCCCCCN2CCN(c3nccs3)CC2)cc1 [Example 4, 2-{4-[5-(4-ethylphenoxy)pentyl]piperazin-1-yl}thiazole]",–,6.3,–,–,–,–,1.97 µg/mL,> 3.13 µg/mL,3.13 µg/mL,12.5 µg/mL,125 to 127 °C,–
"Brc1ccc(OCCCCCN2CCN(c3nccs3)CC2)cc1.Cl [Example 18, 2-{4-[5-(4-bromophenoxy)pentyl]piperazin-1-yl}thiazole hydrochloride]",–,–,–,–,–,–,> 0.78 µg/mL,> 0.78 µg/mL,0.78 µg/mL,4.96 µg/mL,221 to 223 °C,–
"CCOc1ccc(OCCCCCCN2CCN(c3nccs3)CC2)cc1.Cl [Example 21, 2-{4-[6-(4-ethoxyphenoxy)hexyl]piperazin-1-yl}thiazole hydrochloride]",–,8.0,–,12.7,–,–,3.13 µg/mL,1.97 µg/mL,3.13 µg/mL,25.0 µg/mL,222 to 224 °C,–
"CC(C)c1ccc(OCCCCCCN2CCN(c3nccs3)CC2)cc1.Cl [Example 23, 2-{4-[6-(4-isopropylphenoxy)hexyl]piperazin-1-yl}thiazole hydrochloride]",–,34.8,–,10.1,–,–,0.57 µg/mL,1.97 µg/mL,3.13 µg/mL,19.84 µg/mL,135 to 137 °C,–
2-{4-[5-(4-tert-butylphenoxy)pentyl]piperazin-1-yl}thiazole [Example 13],7.87 µg/mL,3.2,>12.5 µg/mL,–,–,–,–,–,12.5 µg/mL,25.0 µg/mL,–,–
5-{4-[3-(4′-ethoxybiphenyl-4-oxy)pentyl]piperazin-1-yl}thiazole [Example 15],100 µg/mL,>2.0,>200.0 µg/mL,–,>200.0 µg/mL,>200.0 µg/mL,–,–,–,–,–,–
"Cc1ccc(OCCCCCN2CCN(c3nccs3)CC2)cc1 [Example 7, 2-{4-[5-(4-methylphenoxy)pentyl]piperazin-1-yl}thiazole]",–,–,–,–,–,–,> 3.13 µg/mL,> 3.13 µg/mL,3.13 µg/mL,19.84 µg/mL,125 to 127 °C,–
"Brc1ccc(OCCCCCCN2CCN(c3nccs3)CC2)cc1 [Example 14, 2-{4-[6-(4-bromophenoxy)hexyl]piperazin-1-yl}thiazole]",–,5.0,–,–,–,–,6.25 µg/mL,> 12.5 µg/mL,12.5 µg/mL,31.5 µg/mL,66 to 68 °C,–
"Cl.c1ccc(OCCCCCN2CCN(c3nccs3)CC2)cc1 [Example 19, 2-[4-(5-phenoxypentyl)piperazin-1-yl]thiazole hydrochloride]",–,6.3,–,–,–,–,12.5 µg/mL,> 12.5 µg/mL,12.5 µg/mL,79.37 µg/mL,145 to 147 °C,–
"Brc1ccc(OCCCCCN2CCN(c3nccs3)CC2)cc1 [Example 17, 2-{4-[5-(4-bromophenoxy)pentyl]piperazin-1-yl}thiazole]",–,–,–,–,–,–,> 0.78 µg/mL,> 0.78 µg/mL,0.78 µg/mL,4.96 µg/mL,73 to 75 °C,–
"CCOc1ccc(OCCCCCN2CCN(c3nccs3)CC2)cc1 [Example 2, 2-{4-[5-(4-ethoxyphenoxy)pentyl]piperazin-1-yl}thiazole]",–,12.7,–,3.2,–,–,1.97 µg/mL,7.87 µg/mL,12.5 µg/mL,25.0 µg/mL,79 to 81 °C,–
"Fc1ccc(OCCCCCN2CCN(c3nccs3)CC2)cc1 [Example 3, 2-{4-[5-(4-fluorophenoxy)pentyl]piperazin-1-yl}thiazole]",–,–,–,–,–,–,> 12.5 µg/mL,> 12.5 µg/mL,12.5 µg/mL,79.37 µg/mL,42 to 44 °C,–

# — US9428496B2, “Thiazolamine derivative and use thereof as anti-picornaviral infection medicament” (Institute of Pharmacology and Toxicology Academy of …, priority 2010, dated 2016)
